{
  "source": "paper PMC10552532",
  "about": "“Evaluation of anti-cancer effects of carnosine and melittin-loaded niosomes in MCF-7 and MDA-MB-231 breast cancer cells” (Frontiers in Pharmacology, 2023)",
  "key": {"[1]": {"assay": "In vitro drug release from dialysis bag", "assay_type": "physicochemical", "details": "first 6 h, pH 5.4, 37°C", "experimental": "A dialysis bag (MWCO = 12 kDa) was used to compare 2 mL of free drugs, Car-NIO and Mel-NIO for drug release (in vitro). This bag was placed in a phosphate buffered saline (PBS) solution (50 mL, 1X, pH = 5.4) with slow stirring (50 rpm) at 37°C. At certain intervals, a portion of the PBS solution was removed and replaced with a new aliquot."}, "MDA-MB-231 cells [2]": {"system": "MDA-MB-231 cells", "assay": "Quantitative RT-PCR of marker genes", "assay_type": "cell-based", "details": "MDA-MB-231, vs untreated cancer cells", "source_text": "(§1) The cells’ total RNA was extracted with the help of the RNA Mini Kit from Ambion by Life Technologies by Thermo Scientific (catalog number: 12183018A). To ensure the integrity of the RNA samples, we used a NanoDrop® ND-1000 Spectrophotometer from NanoDrop Technologies in Wilmington, Delaware, United States A High Capacity cDNA Reverse Transcription Kit (catalog number: 4374966) from Thermo Scientific was then used to amplify the cDNA. The Maxima SYBR Green qPCR Master Mix (2X) kit from Thermo Scientific, (catalog number: K0251), was used for real-time PCR amplification ([Shehata et al., 2018]). The housekeeping GADPH (for mRNA) or U6 (for miRNA) were used as a standard. The 2^−∆∆ct formula was used to calculate the levels of target gene expression ([Livak and Schmittgen, 2001]). Table 1 contains the sequences of the desired gene primers."}, "MCF-7 cells [3]": {"system": "MCF-7 cells", "assay": "Quantitative RT-PCR of marker genes", "assay_type": "cell-based", "details": "MCF-7, vs untreated cancer cells", "source_text": "as §1"}, "MDA-MB-231 cells [4]": {"system": "MDA-MB-231 cells", "assay": "MTT cytotoxicity assay", "assay_type": "cell-based", "details": "Homo sapiens, MDA-MB-231, 48 h, read-out: IC50 (viability)", "experimental": "(§2) The 3-(4,5-dimethylthiazol-2-yl)-2,5-diphenyl-2H-tetrazolium bromide (MTT) assay is a colorimetric method that uses the transformation of yellow MTT into purple formazan. The following procedures were carried out in a clean environment using MTT Assay Kit (Cell Proliferation) (catalog number: ab211091, Abcam, United Kingdom), with the use of a Laminar flow cabinet meeting biosafety standard II (Baker, SG403INT, Sanford, ME, United States), l0^4 cells/well were subjected to varying doses of Car-NIO (5, 10, 25, 50, and 100 μM) ([Tehrani et al., 2018]) and Mel-NIO (5, 10, 25, 50, and 100 μM) ([Yaacoub et al., 2021]) and olaparib (5, 10, 25, 50, and 100 μM) ([Ashmawy et al., 2017]). After 48 h, we added 2.5 μg/mL of MTT to each well and incubated the plates at 37°C for another 4 h. After the formation of formazan crystals, 10% sodium dodecyl sulfate (200 μL/well) was used to dissolve the crystals. We measured the absorbance at 595 nm, and a positive control that causes 100% mortality under the same conditions was utilized. Using the following formula, the change in viability was given as a percentage was calculated: Cytotoxicity %=Extract reading/Negative control reading x100\n(§3) Viability % = 100- Cytotoxicity%, The impact of each treatment is measured by its IC50 (the concentration at which 50% of the viability is inhibited)."}, "MCF-7 cells [5]": {"system": "MCF-7 cells", "assay": "MTT cytotoxicity assay", "assay_type": "cell-based", "details": "Homo sapiens, MCF7, MCF-7, 48 h, read-out: IC50 (viability)", "experimental": "as §2, §3"}, "MDA-MB-231 cells [6]": {"system": "MDA-MB-231 cells", "assay": "Cell cycle distribution by flow cytometry (propidium iodide)", "assay_type": "cell-based", "details": "MDA-MB-231, 48 h at IC50 concentration", "experimental": "(§4) Overnight, the cells were cultured in 100-mm plates at a density of 2 × 10^6 cells/mL per well using fresh culture media. Treatment with Car-NIO (48.83, 51.4 μM), Mel-NIO (21.23, 43.65 μM), and olaparib (23.31, 32.55 μM) for 48 h began the next day. After harvesting, the cells were fixed in 70% ethanol at […] for 12 h. After that, the cells were exposed to RNase (10 mg/mL) and propidium iodide (50 μg/mL) for 30 min. The cell cycle distribution was analyzed using flow cytometry, and the data were analyzed using FlowJo (TreeStar, Ashland, OR, United States) ([Mei et al., 2019])."}, "MCF-7 cells [7]": {"system": "MCF-7 cells", "assay": "Cell cycle distribution by flow cytometry (propidium iodide)", "assay_type": "cell-based", "details": "MCF-7, 48 h at IC50 concentration", "experimental": "as §4"}, "[8]": {"system": "human epidermal growth factor receptor 2-negative, metastatic breast cancer and a hereditary BRCA mutation", "set-up": "method as in Tutt et al., 2021", "details": "olaparib monotherapy rather than the standard treatment; ref Tutt et al., 2021; cited from earlier work"}, "MDA-MB-231 cells [9]": {"system": "MDA-MB-231 cells", "assay": "Lipid peroxidation (MDA) detection", "assay_type": "cell-based", "details": "MDA-MB-231, 48 h at IC50 concentration, vs untreated cancer cells", "experimental": "(§5) For this assay, the cells (2 × 10^6 cells/mL) were seeded onto 96-well culture plates to determine lipid peroxidation levels. Following a 48-h incubation with Car-NIO (48.83, 51.4 μM), Mel-NIO (21.23, 43.65 μM), and olaparib (23.31, 32.55 μM), cells were collected and washed twice with phosphate-buffered saline. The cells were harvested with a sonicator probe (VCX-130 W, Newtown, United States) on ice, and then disrupted by ultra-sonication for 5 s. Following the manufacturer’s guidelines for best results, the malondialdehyde (MDA) was detected in the cell extract using the MDA test kit (catalog number: ab287797, Abcam, United Kingdom). The microplate reader was used to determine the MDA concentration at a wavelength of 532 nm (Tecan, Mannedorf, Switzerland) ([Gérard-Monnier et al., 1998])."}, "MCF-7 cells [10]": {"system": "MCF-7 cells", "assay": "Lipid peroxidation (MDA) detection", "assay_type": "cell-based", "details": "MCF-7, 48 h at IC50 concentration, vs untreated cancer cells", "experimental": "as §5"}},
  "data": [
    {"molecule": "NCCC(=O)N[C@@H](Cc1cnc[nH]1)C(=O)O", "note": "[carnosine, β-alanyl-L-histidine]", "values": [
      {"measurement": "drug release", "setting": "[1]", "result": 43, "unit": "%"}
    ]},
    {"molecule": "O=C(c1cc(Cc2n[nH]c(=O)c3ccccc23)ccc1F)N1CCN(C(=O)C2CC2)CC1", "note": "[olaparib]", "values": [
      {"measurement": "expression level of miRNA-183", "setting": "MDA-MB-231 cells [2]; U6 as standard", "result": "significant downregulation"},
      {"measurement": "expression level of Bcl2", "setting": "MDA-MB-231 cells [2]; relative to GADPH", "result": "significant downregulation"},
      {"measurement": "expression level of FOXO3", "setting": "MDA-MB-231 cells [2]; relative to GADPH", "result": "significantly upregulated"},
      {"measurement": "expression level of PARP 1", "setting": "MDA-MB-231 cells [2]; relative to GADPH", "result": "significant downregulation"},
      {"measurement": "expression level of PDCD4", "setting": "MDA-MB-231 cells [2]; relative to GADPH", "result": "significantly upregulated"},
      {"measurement": "mRNA expression of Bax", "setting": "MDA-MB-231 cells [2]; relative to GADPH", "result": "significant upregulation"},
      {"measurement": "mRNA expression of P53", "setting": "MDA-MB-231 cells [2]; relative to GADPH", "result": "significant upregulation"},
      {"measurement": "mRNA expression of caspase-3", "setting": "MDA-MB-231 cells [2]; relative to GADPH", "result": "significant upregulation"},
      {"measurement": "mRNA expression of caspase-9", "setting": "MDA-MB-231 cells [2]; relative to GADPH", "result": "significant upregulation"},
      {"measurement": "expression level of miRNA-183", "setting": "MCF-7 cells [3]; U6 as standard", "result": "significant downregulation"},
      {"measurement": "expression level of Bcl2", "setting": "MCF-7 cells [3]; relative to GADPH", "result": "significant downregulation"},
      {"measurement": "expression level of FOXO3", "setting": "MCF-7 cells [3]; relative to GADPH", "result": "significantly upregulated"},
      {"measurement": "expression level of PARP 1", "setting": "MCF-7 cells [3]; relative to GADPH", "result": "significant downregulation"},
      {"measurement": "expression level of PDCD4", "setting": "MCF-7 cells [3]; relative to GADPH", "result": "significantly upregulated"},
      {"measurement": "mRNA expression of Bax", "setting": "MCF-7 cells [3]; relative to GADPH", "result": "significant upregulation"},
      {"measurement": "mRNA expression of P53", "setting": "MCF-7 cells [3]; relative to GADPH", "result": "significant upregulation"},
      {"measurement": "mRNA expression of caspase-3", "setting": "MCF-7 cells [3]; relative to GADPH", "result": "significant upregulation"},
      {"measurement": "mRNA expression of caspase-9", "setting": "MCF-7 cells [3]; relative to GADPH", "result": "significant upregulation"},
      {"measurement": "IC50", "setting": "MDA-MB-231 cells [4]", "result": 32.5, "unit": "µM"},
      {"measurement": "IC50", "setting": "MCF-7 cells [5]", "result": 23.3, "unit": "µM"},
      {"measurement": "cells in G0/1 phase", "setting": "MDA-MB-231 cells [6]", "result": 83.0, "unit": "%"},
      {"measurement": "cells in S phase", "setting": "MDA-MB-231 cells [6]", "result": 3.2, "unit": "%"},
      {"measurement": "cells in G0/1 phase", "setting": "MCF-7 cells [7]", "result": 63.2, "unit": "%"},
      {"measurement": "cells in S phase", "setting": "MCF-7 cells [7]", "result": 8.6, "unit": "%"},
      {"measurement": "extension of median progression-free survival", "setting": "[8]", "result": 2.8, "unit": "months"},
      {"measurement": "MDA level", "setting": "MDA-MB-231 cells [9]", "result": "significant downregulation"},
      {"measurement": "MDA level", "setting": "MCF-7 cells [10]", "result": "significant downregulation"}
    ]},
    {"molecule": "melittin", "values": [
      {"measurement": "drug release", "setting": "[1]", "result": 72.3, "unit": "%"}
    ]}
  ]
}
